# Data from patent US6767569B1, “Surface decontamination of cooked sausage and processed meat and poultry products” (priority 1999, dated 2004).
# Legend:
# Format in all cases: cell-based
# [1] = tested on: E. coli; settings: pork skin; 5 seconds spray; 2% lactic acid, 2% acetic acid, 0.1% peracetic acid; after 24 hours
# Description: (§1) Samples of pork skin were inoculated separately with either 5 strains of E. coli or 5 strains of Salmonella spp. (mixtures X and Y, see Example 4). Five different treatments were evaluated for effectiveness in reducing bacteria on pork skin. […] EMB agar was used for E. coli and XLD for Salmonella, and a nutrient agar was also used for E. coli and Salmonella for total count.
# (§2) The five strains of generic E. coli and five strains of Salmonella spp. were cultured and transferred individually into 100 mL of tryptic soy broth (TSB, DIFCO, Detroit, Mich.) with 1% dextrose (Sigma, St. Louis, Mo.) in duplicate. Dextrose was added to induce acid tolerance in the microbial cell. The cultures were incubated at 35° C. for 24 hrs. to obtain ca. 10^9 colony forming units (CFU)/mL. The cells were harvested by the centrifuging each culture at 10,000 Xg force for 10 min. at 4° C., (Beckman J2-HS centrifuge, Beckman Instruments, Inc., Palo Alto, Calif.). After centrifugation, the supernatant was poured off, and cells remained in pellet form. Each pellet was individually re-suspended with 50 mL of 0.1% peptonewater (DIFCO, Detroit, Mich.). All five strains of E. coli or Salmonella spp. inoculum were transferred to separate HDPE plastic spray bottles (Sprayco™, Detroit, Mich.) to be used in the mist inoculation of pork skin samples.
# (§3) For E. coli, PCA and EMB media were used, and for Salmonella, PCA and XLD media were used. Bacto Plate Count Agar (PCA) was used in this study as a standard methods medium for the enumeration of bacteria before and after treatments. Spiral (sl), or spread (sd) plate technique were used for viable cell counts. Duplicate plates were performed for each treatment.
# (§4) Fresh pork skins taken from the loin region were cut to rectangles of 19.35 cm^2. A hole was bored into the top of each sample so that each sample could be suspended from an individual hook in the spray cabinet. Samples were laid out onto trays wrapped in butcher paper. Each tray was individually spray inoculated with E. coli or Salmonella spp. in a Plexiglas spray chamber to ca. 8.4 mL of inoculum. After the inoculation, each tray was placed under a laminar flow hood for 1 hr. to allow the surface to dry and for the attachment of the bacteria to the pork skin.
# (§5) The peracetic acid (PAA) used in this study was a 35.0% PAA buffered, liquid solution prepared from a STERIS 20™ two compartment cup (a dry powder containing anticorrosive additives, buffers, sequestrants, and surfactants). The peracetic acid determined before each use of the treatment using a calibration curve.
# (§6) Five inoculated samples were individually placed on stainless steel hooks in. a spray cabinet at ambient temperature.
# (§7) The samples were exposed to a continuous spray of the selected treatment for 5 seconds at a spray pressure of 16-18 psi.
# (§8) The treated samples were placed into individual stomacher bags containing 30 mL of 0.1% peptone water (DIFCO, Detroit, Mich.) and stomached for 2 min. Serial dilutions of 0, 10^−2, and 10^−4 were spiral plated (WASP spiral plater, Bioscience International, Rockville, Md.) on PCA (DIFCO, Detroit, Mich.) and EMB (DIFCO, Detroit, Mich.) for E. coli and on plate count agar (PCA, DIFCO, Detroit, Mich.) and xylose lysine decarboxylase agar (XLD, DIFCO, Detroit, Mich.) for Salmonella spp. Samples were also spread plated on PCA and EMB agar for E. coli or PCA and XLD agar for Salmonella spp, using […] for a total of 1 mL on 4 plates. This was to ensure a countable plate. Plates were inverted and incubated at 35° C. for 24 hrs. (48 hrs. for Salmonella spp.).
# [2] = tested on: Salmonella spp.; settings: pork skin; 5 seconds spray; 2% lactic acid, 2% acetic acid, 0.1% peracetic acid; after 48 hours
# Description: as §1, §2, §3, §4, §5, §6, §7, §8
# [3] = tested on: E. coli
# Description: (§9) Each strain was subcultured on tryptic soy agar (TSA, DIFCO, Detroit, Mich.) slants and stored at 4° C. Strains were individually transferred into 100 mL of sterile 2× BHI (DIFCO, Detroit, Mich.) and incubated at 35° C. for 24 hr. to reach ca. 10^9 colony forming units/mL (CFU/mL). Then, 25 mL of each strain of E. coli was transferred into a sterile bottle (mixture X), and 25 mL of each strain of each strain of Salmonella spp. was transferred into a sterile bottle (mixture Y). Mixtures X and Y were maintained separately throughout the test.
# (§10) Serial dilutions were made using Butterfields' Phosphate Buffer (BPB, Sigma, St. Louis, Mo.) in 1 mL aliquots prior to inoculation. BPB was prepared as a stock solution by adding 34 g Of KH2PO4 to 500 mL of distilled water. The pH was adjusted to 7.2, and the solution was brought to a volume of 1 L. The BPB stock was autoclaved for 20 min. at 121° C. and 15 lbs. of pressure. […] For glacial acetic acid (U.S.P.-F.C.C., J. T. Baker, Phillipsburg, N.J.), starting concentrations and serial dilutions were 50%, 25%, 12.5%, 6.25%, 3.12%, 1.56%, 0.78%, 0.39%, and a control (no treatment, buffer and culture). […] For peracetic acid 35.0% (STERIS 20™, STERIS Corporation, Mentor, Ohio), starting concentrations and serial dilutions were 17.5%, 8.75%, 4.38%, 2.19%, 1.09%, 0.55%, 0.30%, 0.14%, 0.07%, 0.03%, and a control. For liquid smoke (Hickory Specialties, Brentwood, Tenn.) starting concentrations and serial dilutions were 50%, 25%, 12.5%, 6.25%, 3.12%, 1.56%, 0.78%, 0.39%, and a control. Dilutions were prepared with deionized water.
# (§11) The test tubes were incubated at 35° C. for 24 hrs. and turbidity was evaluated using McFarland equivalence standards, to study the bacteriostatic properties of the diluted solutions. In addition, each dilution was plated to evaluate the bactericidal properties of, the diluted solutions. Using a 1 μL sterile loop, each concentration and control for either microorganism mixture was streaked on plate count agar (PCA, DIFCO, Detroit, Mich.). A selective agar was also used for each mixture, eosine methylene blue agar (EMB, DIFCO, Detroit, Mich.) for E. coli and xylose lysine decarboxylase agar (XLD, DIFCO, Detroit,Mich.) for Salmonella spp. All plates were incubated for 24 hrs. at 35° C. and were inspected for growth or no growth.
# [4] = tested on: Salmonella spp.; settings: 35 °C, 24 hrs
# Description: as §9, §10, §11
compound,measurement,setting,value
"CC(=O)O [Acetic Acid, acetic acid, reference compound]",Total Count (E. coli) on EMB,[1],4.55 Log CFU/cm^2
same,Total Count (E. coli) on PCA,[1],4.68 Log CFU/cm^2
same,Total Count (Salmonella) on PCA,[2],5.37 Log CFU/cm^2
same,Total Count (Salmonella) on XLD,[2],4.27 Log CFU/cm^2
same,MIC (%),[3],3.12%
same,MIC (%),[4],0.78%
